According to US20110092703A1, “P2X4 RECEPTOR ANTAGONIST” (NIPPON CHEMIPHAR CO., LTD., priority 2007, published 2011):
Structures can show the parent of a compound that is named as a salt.

How the values were obtained:
P2X4 receptor [1] = target: T1, P2X4 receptor (Homo sapiens, UniProt Q99571); assay: P2X4 antagonism study by measurement of intracellular Ca2+ influx response; assay type: cell-based; set-up: expressed in transfected cells; details: 1321N1 cells stably expressing human P2X4; 1 μM ATP; compound 15 min before ATP; Fura-2 F340/F380; read-out: Inhibitory activity: IC50
T1 sequence (Q99571 1-388): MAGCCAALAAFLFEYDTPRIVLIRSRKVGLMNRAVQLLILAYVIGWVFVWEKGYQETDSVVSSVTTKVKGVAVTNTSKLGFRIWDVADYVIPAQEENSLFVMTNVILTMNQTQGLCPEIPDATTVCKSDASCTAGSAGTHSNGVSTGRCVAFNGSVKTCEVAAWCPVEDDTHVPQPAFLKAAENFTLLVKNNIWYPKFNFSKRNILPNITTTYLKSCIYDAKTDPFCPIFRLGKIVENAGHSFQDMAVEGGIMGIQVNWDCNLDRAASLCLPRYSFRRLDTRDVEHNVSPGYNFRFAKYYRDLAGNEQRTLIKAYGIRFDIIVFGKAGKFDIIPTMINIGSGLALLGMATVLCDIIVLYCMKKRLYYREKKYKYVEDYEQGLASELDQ
Description: (§1) 1321N1 cells stably expressing human P2X4 receptors were adopted for calcium influx assay. P2X4/1321N1 cells were plated in 96-well assay plate and cultured 24 hours in an atmosphere of 5% CO2 at 37° C. Fura-2 AM calcium indicator in assay buffer (150 mM NaCl, 5 mM KCl, 1.8 mM CaCl2, 1.2 mM MgCl2, 10 mM D-glucose and 25 mM HEPES, pH 7.4) was loaded onto cells for 1 hour at room temperature and the fluorescence was detected by FLUOstar Optima micro plate reader (BMG labtech). The cells were alternatively illuminated with two excitations wavelengths (340 nm and 380 nm) via xenon lamp and the emitted fluorescence was measured at 510 nm. The fluorescence changes after the treatment of 1 μM ATP were monitored and determined the fluorescence ratio (F340/F380) as the index of intracellular calcium change. Tested compound were treated to cells 15 min before the addition of ATP and the inhibition activity of compounds was calculated by comparing the Ca^2+ response with control in the absence of tested compound.
as §1, with “pH7.4)” for “pH 7.4)”

[2] = target: T2, human Serotonin transporter (Homo sapiens, UniProt P31645); assay: [3H]paroxetine binding to serotonin transporter; details: read-out: Percent inhibition (10^−7 M)
T2 construct: expressed in transfected cells; cell membranes
T2 sequence (P31645 whole entry): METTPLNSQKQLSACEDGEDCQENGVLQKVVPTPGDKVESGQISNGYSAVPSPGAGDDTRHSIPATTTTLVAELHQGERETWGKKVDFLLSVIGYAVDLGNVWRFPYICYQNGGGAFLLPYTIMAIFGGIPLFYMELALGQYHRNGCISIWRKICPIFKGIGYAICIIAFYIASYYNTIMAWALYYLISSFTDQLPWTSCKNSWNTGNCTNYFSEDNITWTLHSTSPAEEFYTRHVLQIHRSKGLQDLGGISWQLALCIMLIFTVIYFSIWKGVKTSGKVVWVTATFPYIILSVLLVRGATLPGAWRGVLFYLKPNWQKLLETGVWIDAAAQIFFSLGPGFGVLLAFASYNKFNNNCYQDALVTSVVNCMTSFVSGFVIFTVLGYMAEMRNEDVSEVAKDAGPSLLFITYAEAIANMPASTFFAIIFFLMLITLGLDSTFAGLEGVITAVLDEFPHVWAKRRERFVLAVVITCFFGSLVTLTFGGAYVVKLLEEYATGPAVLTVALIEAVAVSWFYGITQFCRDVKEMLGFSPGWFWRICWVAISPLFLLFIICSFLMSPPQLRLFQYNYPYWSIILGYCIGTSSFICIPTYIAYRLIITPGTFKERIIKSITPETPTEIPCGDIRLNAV
Description: After incubation for 60 min at 25° C., the reaction was terminated by rapid filtration through GF/B glass fiber filter and rinsed with ice-cold incubation buffer. The retained radioactivity on filter was measured by a liquid scintillation counter. Nonspecific binding was defined with 10 μM imipramine and subtracted from total binding to determine specific binding. Inhibition activities of tested compounds were determined as a percent inhibition of the specific binding.

serotonin reuptake = target: T3, serotonin reuptake (Rattus norvegicus, UniProt P31652); assay: Serotonin reuptake inhibition assay ([3H]serotonin, synaptosomes prepared from the rat brain); assay type: biochemical; details: 10^−7 M compound, 15 min at 37° C., read-out: Percent inhibition (10^−7 M)
T3 construct: synaptosomes prepared from the rat brain; from tissue; host or cells: rat brain synaptosomes
T3 sequence (P31652 whole entry): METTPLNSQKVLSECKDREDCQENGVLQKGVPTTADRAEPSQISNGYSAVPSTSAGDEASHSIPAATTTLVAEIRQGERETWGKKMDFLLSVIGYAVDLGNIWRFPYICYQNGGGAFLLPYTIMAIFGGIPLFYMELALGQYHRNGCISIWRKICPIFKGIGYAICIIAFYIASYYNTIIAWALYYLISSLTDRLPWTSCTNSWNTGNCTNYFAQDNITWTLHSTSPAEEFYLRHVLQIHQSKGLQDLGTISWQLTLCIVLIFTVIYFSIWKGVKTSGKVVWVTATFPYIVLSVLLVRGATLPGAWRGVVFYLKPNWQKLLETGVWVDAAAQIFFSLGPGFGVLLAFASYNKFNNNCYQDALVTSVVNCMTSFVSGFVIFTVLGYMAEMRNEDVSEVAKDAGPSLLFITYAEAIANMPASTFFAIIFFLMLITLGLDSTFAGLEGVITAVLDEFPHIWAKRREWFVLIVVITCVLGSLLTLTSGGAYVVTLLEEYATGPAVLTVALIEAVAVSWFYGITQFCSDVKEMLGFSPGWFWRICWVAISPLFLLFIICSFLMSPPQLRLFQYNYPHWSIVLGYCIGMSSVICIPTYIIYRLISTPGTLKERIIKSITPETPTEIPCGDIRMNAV
Description: 100 μg of the synaptosomes prepared from the rat brain were incubated for 15 min at 37° C. with 0.1 μCi [^3H]serotonin in the presence of tested compound in a buffer containing 106.2 mM NaCl, 4.5 mM KCl, 2.25 mM MgSO4, 1.08 mM NaH2PO4, 22.5 mM NaHCO3, 9.9 mM glucose, 9 μM EGTA and 45 μM ascorbic acid (pH 7.4). Basal control activity was determined by incubating the same mixture for 15 min at 4′C in the presence of 10 μM imipramine. Following incubation, the samples were filtered rapidly under vacuum through GF/B glass fiber filters and rinsed twice with ice-cold incubation buffer using a cell harvester. The retained radioactivity on filters was measured in TopCount scintillation counter. The results were expressed as a percent inhibition of the specific binding in the absence of tested compound.
100 μg of the synaptosomes prepared from the rat brain were incubated for 15 min at 37° C. with 0.1 μCi [^3H]serotonin in the presence of tested compound in a buffer containing 106.2 mM NaCl, 4.5 mM KCl, 2.25 mM MgSO4, 1.08 mm NaH2PO4, 22.5 mM NaHCO3, 9.9 mM glucose, 9 μM EGTA and 45 μM ascorbic acid (pH 7.4). Basal control activity was determined by incubating the same mixture for 15 min at 4° C. in the presence of 10 μM imipramine. […] The retained radioactivity on filters was measured in TopCount scintillation counter. […]

P2X4 receptor [3] = target: T1, P2X4 receptor; details: disclosed in WO 2007/049825 / Abstract P3-N-114; cited from earlier work

SMILES | IC50 (P2X4 receptor [1]) [µM] | inhibition at 0.1 µM [2] [%] | other results
CC(C)c1cccc(N2CCNCC2COc2ccc(OC(C)(C)C)cc2)c1 (centres unmarked) [Example 13, 2-(4-tert-Butoxyphenoxymethyl)-1-(3-isopropylphenyl)piperazine hydrochloride] | 2.9 |  | 
CCCc1ccc(N2CCNCC2COc2ccc(Cl)cc2)cc1 (centres unmarked) [Example 2, 2-(4-Chlorophenoxymethyl)-1-(4-propylphenyl)piperazine hydrochloride] | 7.6 | 31 | 
CC(C)NS(=O)(=O)c1ccc(OCC2CNCCN2c2ccc(C(C)C)cc2)cc1 (centres unmarked) [Example 16, 1-(4-Isopropylphenyl)-2-[4-(isopropylsulfamoyl)phenoxymethyl]piperazine hydrochloride] | 2.8 |  | inhibition at 0.1 µM (serotonin reuptake): 11%
Clc1ccc(OCC2CNCCN2c2ccc3c(c2)CCC3)cc1 (centres unmarked) [Example 10, 2-(4-Chlorophenoxymethyl)-1-indan-5-yl-piperazine hydrochloride] | 4.7 | 44 | 
CC(C)c1cccc(N2CCNCC2COc2ccc(Cl)cc2)c1 (centres unmarked) [Example 3, 2-(4-Chlorophenoxymethyl)-1-(3-isopropylphenyl)piperazine hydrochloride] | 8.3 | 13 | 
Fc1ccc([C@@H]2CCNC[C@H]2COc2ccc3c(c2)OCO3)cc1 [Paroxetine] |  |  | P2X4 receptor antagonism (in words) (P2X4 receptor [3]): shows P2X4 receptor antagonism
Cc1cc(C)c(N2CCNCC2COc2ccc(Cl)cc2)c(C)c1 (centres unmarked) [Example 7, 2-(4-Chlorophenoxymethyl)-1-(2,4,6-trimethylphenyl)piperazine hydrochloride] | 3.1 | 26 | 
CC(C)c1ccc(N2CCNCC2COc2ccc3c(c2)OCO3)cc1 (centres unmarked) [Example 11, 1-(4-Isopropylphenyl)-2-(3,4-methylenedioxyphenoxymethyl)piperazine hydrochloride] | 7.4 |  | 
CC(C)c1ccc(N2CCNCC2CSc2ccc(Cl)cc2)cc1 (centres unmarked) [Example 17, 2-(4-Chlorophenylsulfanylmethyl)-1-(4-isopropylphenyl)piperazine hydrochloride] | 8.1 |  | inhibition at 0.1 µM (serotonin reuptake): 4%
CC(C)c1ccc(N2CCNCC2COc2ccc(S(N)(=O)=O)cc2)cc1 (centres unmarked) [Example 15, 1-(4-Isopropylphenyl)-2-(4-sulfamoylphenoxymethyl)piperazine hydrochloride] | 6.3 |  | 
Cc1cccc(C)c1N1CCNCC1COc1ccc(Cl)cc1.Cl (centres unmarked) |  |  | melting point: 97 to 100 °C
CC(C)c1ccc(N2CCNCC2COc2ccc(Cl)cc2)cc1 (centres unmarked) [Example 1, 2-(4-Chlorophenoxymethyl)-1-(4-isopropylphenyl)piperazine hydrochloride] | 6.9 | 17 | 
CN(C)CCCN1c2ccccc2CCc2ccccc21 [imipramine] |  |  | P2X4 receptor antagonism (in words) (P2X4 receptor [3]): shows P2X4 receptor antagonism
